Consider one compound from US11034702B2, “Thienoisoquinolines and their derivatives for the treatment of cancer” (VALORBEC, SOCIÉTÉ EN COMMANDITE, priority 2016, dated 2021).

Experiment [1] deals with HCT116 cells. Description: Mitotic spindle phenotype and centrosome fragment distance in HCT116 cells. Type of experiment: cell-based. As to the method: (§1) FIG. 2A) is a line graph showing the percentage of HCT116 (p53−/−) cells, A549 cells, HeLa cells and H1299 cells in mitosis after treatment with various concentrations of C75 for one population doubling time. All of the cell lines show an increase in the proportion of mitotic cells after treatment with 200 nM C75. The bars indicate standard deviation. […] While the mitotic spindles were not dramatically altered by C75 in HFF1 cells, they were monopolar (as shown) or fragmented in the other cell types. […] The mitotic spindles were more strongly fragmented after C75 treatment in these cells vs. the cells in FIG. 2B). […] While mitotic spindles recovered bipolarity after removing nocodazole, they remained multipolar after removing C75. FIG. 2F) is a series of time-lapse images of a live HeLa cell expressing GFP:tubulin after treatment with C75 as shown in 2D) and 2E). The scale bar for all cells is 10 μm. FIG. 2G) is a schematic showing the putative target for C75. Healthy cells have two centrosomes that separate and form a bipolar spindle, while cancer cells have aberrant centrosomes that cluster to form ‘pseudo’ bipolar spindles, and C75 may target this process and their integrity.
FIG. 3A) is a line graph showing the percentage of mitotic HeLa or HFF1 cells treated with a range of paclitaxel (Taxol™; tubulin-targeting drug) concentrations+/−C75 as indicated. The bars indicate standard deviation. FIG. 3B) is a series of bar graphs showing the proportion of HCT116 cells that have monopolar spindles, bipolar spindles with aligned chromosomes, bipolar spindles with misaligned chromosomes and multipolar/fragmented spindles after treatments as shown. Treatments include DMSO (control), varying concentrations of paclitaxel and/or varying concentrations of C75 after 7 hours. While treatment of HCT116 cells with 2.5 nM paclitaxel caused a threshold of mitotic spindle phenotypes, adding increasing concentrations of C75 in combination with 2.5 nM paclitaxel caused the phenotypes to progressively worsen. FIG. 3C) is bar graph showing the average distance between centrosome fragments in HCT116 cells after treatments as shown. While centrosome fragments moved closer together with increased concentrations of paclitaxel, they moved further apart with increased concentrations of C75. […] FIG. 3E) is a line graph showing the percentage of mitotic HeLa or HFF1 cells treated with a range of nocodazole concentrations+/−C75 as indicated. The bars indicate standard deviation. […]
(§2) C75 was also tested for efficacy in different cancer cell lines. […] To further assess the role of C75 in affecting centrosomes, HeLa cells were treated with C75 for a short period of time (5 minutes), then C75 was removed and the cells were analyzed for spindle phenotypes (schematic in FIG. 2D). […]

The subject of experiment [2] is HCT116 (p53-/-) cells. Description: Mitotic arrest (percentage of cells in mitosis) in HCT116 cells. The format is cell-based. To be noted: HCT116, within one population doubling time. As to the method:
as §1, with “Healthy cells have two centrosomes that separate and form a bipolar spindle, while cancer cells have aberrant centrosomes that cluster to form ‘pseudo’ bipolar spindles, and C75 may target this process and their integrity.” left out
as §2

Experiment [3] deals with BT549 (breast ductal carcinoma) cells. As to the kind of experiment: IC50 (viability) in BT549 cells. Type of experiment: cell-based. To be noted: Homo sapiens, BT-549. The procedure:
(§3) 19 variants with different structural modifications have been made. […] In particular, it is shown that C75 causes death in multiple cancer cells with IC50 values in the 100 nM range, including breast cancers (MCF7, BT549), lung cancer (A549), colorectal cancer (HCT116) in addition to HeLa cells (cervical cancer).

In experiment [4] the test system is H1299 cells. Description: Mitotic spindle phenotype in H1299 cells. Type of experiment: cell-based, human. To be noted: H1299, 300 nM, 6-8 hours. As to the method:
as §1, with “Healthy cells have two centrosomes that separate and form a bipolar spindle, while cancer cells have aberrant centrosomes that cluster to form ‘pseudo’ bipolar spindles, and C75 may target this process and their integrity.” left out
as §2

Experiment [5] relates to A549 (lung carcinoma) cells. As to the kind of experiment: IC50 (viability) in A549 cells. The note with it: Homo sapiens. The format is cell-based. As to the method: as §3

For the compound `COc1ccc(S(=O)(=O)N2Cc3ccccc3-c3sc(Br)cc32)cc1` [Compound C75], the mitotic spindle phenotype result in experiment [1] (HCT116 (p53-/-), 300 nM, 6-8 hours) is “most of the spindles were severely fragmented”; in experiment [4] it was “mix of monopolar, bipolar and multipolar spindles”. In addition, in experiment [1] (HCT116, 2.5 nM paclitaxel + increasing C75, 7 hours), the “effect of C75 on phenotypes caused by paclitaxel” value was “enhances the phenotypes”. Also, the “change of centrosome fragment distance when paclitaxel was combined with C75” value in experiment [1] (HCT116, paclitaxel + C75) is given as “significant increase in fragment distance”. The “concentration causing mitotic arrest” value in experiment [2] is 100 to 200 nM. In addition, the IC50 (usually the concentration needed to halve the response being measured) in experiment [3] is 158 nM; in experiment [5] it was 109 nM.
